Data as given in the NIST ThermoML archive (doi:10.1021/je060271a).
Values joined by “and” are separate entries in the source; they are usually repeats but may differ in a detail not shown here. Equal values may be shown once. ± gives the expanded uncertainty stated by the source.

Conditions: Liquid, Vibrating tube method

CCCCCCCC(=O)OCC(COC(=O)CCCCCCC)(COC(=O)CCCCCCC)COC(=O)CCCCCCC [pentaerythritol tetraoctanoate]
Conditions | mass density
303.15 K, 32860 kPa | 974.3 ± 1.2 kg/m3
303.15 K, 32891 kPa | 974.3 ± 1.2 kg/m3
303.15 K, 32922 kPa | 974.2 ± 1.2 kg/m3
303.15 K, 32960 kPa | 974.3 ± 1.2 kg/m3
303.15 K, 32992 kPa | 974.4 ± 1.2 kg/m3
303.15 K, 33022 kPa | 974.3 ± 1.2 kg/m3
303.15 K, 33060 kPa | 974.4 ± 1.2 kg/m3
303.15 K, 33092 kPa | 974.4 ± 1.2 kg/m3
303.15 K, 33129 kPa | 974.4 ± 1.2 kg/m3
303.15 K, 33161 kPa | 974.4 ± 1.2 kg/m3
303.15 K, 33192 kPa | 974.4 ± 1.2 kg/m3
303.15 K, 33231 kPa | 974.5 ± 1.2 kg/m3
303.15 K, 33263 kPa | 974.4 ± 1.2 kg/m3
303.15 K, 33295 kPa | 974.5 ± 1.2 kg/m3
303.15 K, 33327 kPa | 974.5 ± 1.2 kg/m3
303.15 K, 33366 kPa | 974.6 ± 1.2 kg/m3
303.15 K, 33398 kPa | 974.6 ± 1.2 kg/m3
303.15 K, 33437 kPa | 974.6 ± 1.2 kg/m3
303.15 K, 33469 kPa | 974.5 ± 1.2 kg/m3
303.15 K, 33502 kPa | 974.6 ± 1.2 kg/m3
303.15 K, 33541 kPa | 974.8 ± 1.2 kg/m3
303.15 K, 33574 kPa | 974.6 ± 1.2 kg/m3
303.15 K, 33607 kPa | 974.6 ± 1.2 kg/m3
303.15 K, 33647 kPa | 974.7 ± 1.2 kg/m3
303.15 K, 33682 kPa | 974.8 ± 1.2 kg/m3
303.15 K, 33716 kPa | 974.7 ± 1.2 kg/m3
303.15 K, 33760 kPa | 974.6 ± 1.2 kg/m3
303.15 K, 33796 kPa | 974.8 ± 1.2 kg/m3
303.15 K, 33832 kPa | 974.9 ± 1.2 kg/m3
303.15 K, 33864 kPa | 974.9 ± 1.2 kg/m3
303.15 K, 33892 kPa | 974.7 ± 1.2 kg/m3
303.15 K, 33915 kPa | 974.9 ± 1.2 kg/m3
303.15 K, 33938 kPa | 974.8 ± 1.2 kg/m3
303.15 K, 33965 kPa | 975 ± 1.2 kg/m3
303.15 K, 33988 kPa | 974.9 ± 1.2 kg/m3
303.15 K, 34016 kPa | 974.8 ± 1.2 kg/m3
303.15 K, 34039 kPa | 974.9 ± 1.2 kg/m3
303.15 K, 34062 kPa | 975 ± 1.2 kg/m3
303.15 K, 34092 kPa | 974.9 ± 1.2 kg/m3
303.15 K, 34116 kPa | 975 ± 1.2 kg/m3
303.15 K, 34141 kPa | 974.9 ± 1.2 kg/m3
303.15 K, 34166 kPa | 975 ± 1.2 kg/m3
303.15 K, 34196 kPa | 974.9 ± 1.2 kg/m3
303.15 K, 34222 kPa | 975 ± 1.2 kg/m3
303.15 K, 34255 kPa | 975.2 ± 1.2 kg/m3
303.15 K, 34284 kPa | 975.1 ± 1.2 kg/m3
303.15 K, 34313 kPa | 975 ± 1.2 kg/m3
303.15 K, 34325 kPa | 975 ± 1.2 kg/m3
303.15 K, 34326 kPa | 975.1 ± 1.2 kg/m3
303.15 K, 34328 kPa | 975.1 ± 1.2 kg/m3
303.15 K, 34329 kPa | 975.2 ± 1.2 kg/m3
303.15 K, 34330 kPa | 975.2 ± 1.2 kg/m3
303.15 K, 34332 kPa | 975.2 ± 1.2 kg/m3
303.15 K, 34333 kPa | 975.1 ± 1.2 kg/m3 and 975.2 ± 1.2 kg/m3
303.15 K, 34335 kPa | 975.1 ± 1.2 kg/m3
303.15 K, 34336 kPa | 975 ± 1.2 kg/m3
303.15 K, 34337 kPa | 975 ± 1.2 kg/m3
303.15 K, 34339 kPa | 975 ± 1.2 kg/m3
303.15 K, 34340 kPa | 975 ± 1.2 kg/m3 and 975.1 ± 1.2 kg/m3
303.15 K, 34342 kPa | 975 ± 1.2 kg/m3
303.15 K, 34343 kPa | 975 ± 1.2 kg/m3
303.15 K, 34349 kPa | 975.1 ± 1.2 kg/m3
303.15 K, 34350 kPa | 975 ± 1.2 kg/m3
303.15 K, 34361 kPa | 975.2 ± 1.2 kg/m3
303.15 K, 34371 kPa | 975.2 ± 1.2 kg/m3
303.15 K, 34374 kPa | 975 ± 1.2 kg/m3
303.15 K, 34375 kPa | 975.2 ± 1.2 kg/m3
303.15 K, 34377 kPa | 975.2 ± 1.2 kg/m3
303.16 K, 3295.7 kPa | 957.4 ± 1.2 kg/m3
303.16 K, 3309.7 kPa | 957.5 ± 1.2 kg/m3
303.16 K, 3323.8 kPa | 957.4 ± 1.2 kg/m3
303.16 K, 3335.4 kPa | 957.5 ± 1.2 kg/m3
303.16 K, 3349.9 kPa | 957.5 ± 1.2 kg/m3
303.16 K, 3364.5 kPa | 957.5 ± 1.2 kg/m3
303.16 K, 3376.5 kPa | 957.4 ± 1.2 kg/m3
303.16 K, 3390.8 kPa | 957.6 ± 1.2 kg/m3
303.16 K, 3405.4 kPa | 957.4 ± 1.2 kg/m3
303.16 K, 3418 kPa | 957.6 ± 1.2 kg/m3
303.16 K, 3432.9 kPa | 957.5 ± 1.2 kg/m3
303.16 K, 3447.8 kPa | 957.5 ± 1.2 kg/m3
303.16 K, 3460.5 kPa | 957.5 ± 1.2 kg/m3
303.16 K, 3475.7 kPa | 957.5 ± 1.2 kg/m3
303.16 K, 3490.8 kPa | 957.6 ± 1.2 kg/m3
303.16 K, 3504 kPa | 957.5 ± 1.2 kg/m3
303.16 K, 3519.7 kPa | 957.6 ± 1.2 kg/m3
303.16 K, 3535.3 kPa | 957.7 ± 1.2 kg/m3
303.16 K, 3548.8 kPa | 957.5 ± 1.2 kg/m3
303.16 K, 3564.8 kPa | 957.5 ± 1.2 kg/m3
303.16 K, 3593.9 kPa | 957.6 ± 1.2 kg/m3
303.16 K, 3609.8 kPa | 957.6 ± 1.2 kg/m3
303.16 K, 3626.1 kPa | 957.6 ± 1.2 kg/m3
303.16 K, 3640.3 kPa | 957.7 ± 1.2 kg/m3
303.16 K, 3656.9 kPa | 957.6 ± 1.2 kg/m3
303.16 K, 3671 kPa | 957.7 ± 1.2 kg/m3
303.16 K, 3688.1 kPa | 957.8 ± 1.2 kg/m3
323.14 K, 32674 kPa | 960.8 ± 1.2 kg/m3
323.14 K, 32807 kPa | 961 ± 1.2 kg/m3
323.15 K, 104.51 kPa | 940.7 ± 1.1 kg/m3
323.15 K, 104.52 kPa | 940.7 ± 1.1 kg/m3 and 940.6 ± 1.1 kg/m3
323.15 K, 105.05 kPa | 940.7 ± 1.1 kg/m3
323.15 K, 105.56 kPa | 940.7 ± 1.1 kg/m3
323.15 K, 107.29 kPa | 940.7 ± 1.1 kg/m3
323.15 K, 110.42 kPa | 940.7 ± 1.1 kg/m3
323.15 K, 119.65 kPa | 940.6 ± 1.1 kg/m3
323.15 K, 137.02 kPa | 940.6 ± 1.1 kg/m3
323.15 K, 166.4 kPa | 940.7 ± 1.1 kg/m3
323.15 K, 245.49 kPa | 940.7 ± 1.1 kg/m3
323.15 K, 268.79 kPa | 940.8 ± 1.1 kg/m3
323.15 K, 281.82 kPa | 940.8 ± 1.1 kg/m3
323.15 K, 299.57 kPa | 941 ± 1.1 kg/m3
323.15 K, 315.89 kPa | 940.9 ± 1.1 kg/m3
323.15 K, 333.79 kPa | 940.8 ± 1.1 kg/m3
323.15 K, 351.71 kPa | 940.9 ± 1.1 kg/m3
323.15 K, 362.82 kPa | 940.9 ± 1.1 kg/m3
323.15 K, 374.29 kPa | 940.8 ± 1.1 kg/m3
323.15 K, 388.88 kPa | 941 ± 1.1 kg/m3
323.15 K, 401.56 kPa | 941 ± 1.1 kg/m3
323.15 K, 413.39 kPa | 941 ± 1.1 kg/m3
323.15 K, 427.29 kPa | 940.9 ± 1.1 kg/m3
323.15 K, 439.11 kPa | 940.9 ± 1.1 kg/m3
323.15 K, 449.2 kPa | 941 ± 1.1 kg/m3
323.15 K, 461 kPa | 940.9 ± 1.1 kg/m3
323.15 K, 471.78 kPa | 941 ± 1.1 kg/m3
323.15 K, 482.73 kPa | 940.9 ± 1.1 kg/m3
323.15 K, 496.63 kPa | 940.9 ± 1.1 kg/m3
323.15 K, 509.14 kPa | 940.9 ± 1.1 kg/m3
323.15 K, 522.17 kPa | 941 ± 1.1 kg/m3
323.15 K, 538.51 kPa | 941.1 ± 1.1 kg/m3
323.15 K, 552.59 kPa | 941 ± 1.1 kg/m3
323.15 K, 567.71 kPa | 940.9 ± 1.1 kg/m3
323.15 K, 586.82 kPa | 941 ± 1.1 kg/m3
323.15 K, 621.05 kPa | 941 ± 1.1 kg/m3
323.15 K, 643.29 kPa | 941.1 ± 1.1 kg/m3
323.15 K, 663.11 kPa | 941 ± 1.1 kg/m3
323.15 K, 684.47 kPa | 941.1 ± 1.1 kg/m3
323.15 K, 711.74 kPa | 941 ± 1.1 kg/m3
323.15 K, 735.9 kPa | 941.1 ± 1.1 kg/m3
323.15 K, 761.44 kPa | 941.1 ± 1.1 kg/m3
323.15 K, 788.7 kPa | 941.2 ± 1.1 kg/m3
323.15 K, 806.43 kPa | 941.1 ± 1.1 kg/m3
323.15 K, 824.32 kPa | 941.2 ± 1.1 kg/m3
323.15 K, 839.78 kPa | 941.2 ± 1.1 kg/m3
323.15 K, 855.59 kPa | 941.1 ± 1.1 kg/m3
323.15 K, 972.85 kPa | 941.4 ± 1.1 kg/m3
323.15 K, 994.21 kPa | 941.3 ± 1.1 kg/m3
323.15 K, 1021.5 kPa | 941.4 ± 1.1 kg/m3
323.15 K, 1039.6 kPa | 941.3 ± 1.1 kg/m3
323.15 K, 1067.7 kPa | 941.3 ± 1.1 kg/m3
